{
  "source": "patent US20060020036A1",
  "about": "“Methods and compositions to promote bone homestasis” (priority 2004, published 2006)",
  "molecules": {"B1": {"name": "PTH: recombinant human parathyroid hormone, known osteogenic agent (protein, UniProt P01270 32-115, looked up)", "Parathyroid hormone": "SVSEIQLMHNLGKHLNSMERVEWLRKKLQDVHNFVALGAPLAPRDAGSQRPRKKEDNVLVESHEKSLGEADKADVNVLTKAKSQ", "modifications": "Parathyroid hormone", "notes": "recombinant human parathyroid hormone, known osteogenic agent"}},
  "key": {"GPR65": {"biological_target": "T1, GPR65 (Homo sapiens, UniProt Q8IYL9)", "T1 construct": "amplification of the complete open reading frame from ATG start codon to the stop codon of drugable genes; expressed in transfected cells; host or cells: primary human mesenchymal progenitor cells (MPCs), transduced with Ad-GPR65 and Ad-hCAR", "T1 sequence (Q8IYL9 whole entry)": "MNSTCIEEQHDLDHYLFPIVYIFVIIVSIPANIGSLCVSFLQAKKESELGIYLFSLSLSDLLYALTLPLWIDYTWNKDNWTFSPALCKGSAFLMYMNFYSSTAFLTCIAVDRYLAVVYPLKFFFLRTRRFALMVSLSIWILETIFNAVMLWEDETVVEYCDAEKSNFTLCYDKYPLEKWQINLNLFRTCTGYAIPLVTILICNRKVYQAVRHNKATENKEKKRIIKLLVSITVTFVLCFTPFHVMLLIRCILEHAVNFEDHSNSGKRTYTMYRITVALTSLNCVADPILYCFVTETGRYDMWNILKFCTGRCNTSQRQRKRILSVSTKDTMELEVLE", "experiment": "AP assay: MPCs infected with Ad-GPR65 and treated with ligand", "format": "cell-based", "details": "ligand at different concentrations", "procedure": "These dose-response curves are depicted in FIG. 5. A dose-response curve for AP activity is generated for MPCs infected with Ad-NR1H3 and treated with T0901317 (FIG. 5A). MPCs are seeded on day 0 at 1000 cells per well of a 384 well plate and co-infected the next day using AdC51-hCAR (MOI 250) and different MOIs of Ad5-NR1H3 (MOI 12000, 4000, 1333, 444). On day 1, 5 concentrations (1E-10M, 1E-9M, 1E-8M, 1E-7M, 1E-6M) of the compound T0901317 (Cayman Chemical, Michigan, USA, Cat. No. 71810) with fixed vehicle concentration (the vehicle is DMSO at the concentration is 0.01%) are added to the wells. After incubation for 6 days at 37° C., 10% CO2 in a humidified incubator, up-regulation of alkaline phosphatase is read: 15 μl MUP is added to each well, the plates are incubated for 15 min at 37° C. and monitored for AP activity using a fluorescence plate reader (Fluostar, BMG).\nDose-response curves for AP activity are generated in a similar way for MPCs infected with Ad-GPR65 and treated with 1-b-D-Galactosylsphingosine (FIG. 5B); for MPCs infected with Ad-AVPR2 and treated with [deamino-Cysl, D-Arg8]-Vasopressin (DDAVP) (FIG. 5C)."}, "NR5A2 mRNA": {"test_system": "NR5A2 mRNA", "experiment": "Up-regulation of NR5A2 and NR1H3 mRNA levels by osteogenic triggers in MPCs", "format": "cell-based, human", "details": "final concentration 0.1 μM, vs vehicle, several time points", "procedure": "100,000 MPCs are seeded in each well of a 6 well plate in 2 ml MPC medium, containing 10% FCS. The next day, after incubation at 37° C., 10% CO2 in a humidified incubator, cells are co-infected with AdC15-hCAR (final MOI of 750) and Ad-BMP2, Ad-RUNX2, Ad-MSX2, Ad-PTHR1/PTHLH or Ad-eGFP or Ad-luciferase as negative controls (final MOIs of 1250 and 2500). Alternatively, cells are treated with dexamethasone (final concentration 0.1 μM), VitD3 (final concentration 0.1 μM) or the vehicle controls (0.1% EtOH or DMSO). Cells are incubated at 37° C., 10% CO2 in a humidified incubator for a further six days unless cells are already harvested for RNA isolation. Virus is removed and replaced by 2 ml fresh OS medium (proprietary medium containing 10% FCS). Over the next 18 days, medium is refreshed 3 times per 2 weeks. Every other time, medium is refreshed half or completely. […] The fold up-regulation of NR5A2 or NR1H3 mRNA compared to negative controls (vehicle for dexamethasone or VitD3 treatment) or Ad-luciferase for Ad-infections) is calculated (FIG. 16)."}, "[1]": {"test_system": "calvarial skull bones (hemicalvaria)", "experiment": "Calvarial skull assay (bone organ culture)", "format": "cell-based, CD1 mice", "procedure": "CD1 pups are harvested around birth from CD1 female mice (received from Janvier (Le Genest St Isle, France) when they were 11 days pregnant). Pups are decapitated and the calvarial skull is dissected and split into 2 hemicalvaria. Hemicalvaria are blotted using sterile gauze, weighed and cultured in 24 well plates (MEMalpha or BGJb-Fitton-Jackson medium containing 50 μg/ml L-ascorbic acid (Sigma, A-4034), 5 mM β-glycerophosphate (Sigma, G-9891) and Penicillin-Streptomycin (Invitrogen Cat # 15140-122)). Small molecules (ligands, agonists, antagonists) are tested in at least three-fold at a minimum of 3 concentrations. Each small molecule is added to the medium on day 0 and added again when refreshing the medium (every 2-3 days). Three to 16 days after the start of the experiment, skulls are weighed again after blotting them dry using sterile gauze. The weight difference is calculated, expressed as percent weight change and the mean and standard deviations (SD) are calculated for the triplicate measurements. Data are analyzed using the Student's t-test.\nThe formation of new osteoid is analyzed histologically as follows: hemicalvaria are fixed in 10% buffered formalin for at least 2 days, decalcified in 10% EDTA overnight, processed through graded alcohols and embedded in paraffin wax. Three to 10 μm sections are prepared of the calvaria and stained with hematoxylin and eosin (H&E). Healthy cells, dead cells, old and new bone, and collagen are identified by their distinctive morphology and colouring observed after H&E staining. The surfaces taken by these are measured stereologically (μm^2 readout) and termed Osteoblast area, Debris area, Native and New bone area, Collagen area and Total area (sum of the previous 5 areas), respectively. In addition, the thickness (μm readout) is measured at 8 positions, evenly spaced over the section.\nThe histological readout of the calvarial skull assay is developed using known osteogenic agents. Hemicalvaria were treated with recombinant human parathyroid hormone (rhPTH).\nT0901317 is added to the culture medium of the dissected hemicalvaria at the day of dissection at several doses (19.5, 78.1 and 313 nM), in fourfold. The concentration of the solvent (vehicle), DMSO, is fixed at a final concentration of 0.05%. The medium, containing T0901317 or vehicle control is refreshed every 2-3 days. Hemicalvaria are harvested 7 days after the initiation of the experiment and subjected to the histological analysis described above."}},
  "note": "“Also recorded” adds a separate entry of the source.",
  "data": [
    {"molecule": "CCCCCCCCCCCCCC=CC(O)C(N)CO[C@@H]1O[C@H](CO)[C@H](O)[C@H](O)[C@H]1O", "note": "(stereo partly drawn) [1-b-D-Galactosylsphingosine]", "values": [
      {"measurement": "up-regulation of endogenous alkaline phosphatase (AP) activity, dose-response", "setting": "GPR65", "result": "dose-dependently increase the up-regulation of the endogenous alkaline phosphatase activity; also recorded: dose-dependent up-regulation of AP activity"}
    ]},
    {"molecule": "C=C1CC[C@H](O)C/C1=C/C=C1\\CCC[C@]2(C)[C@@H]([C@H](C)CCCC(C)C)CC[C@@H]12", "note": "[VitD3]", "values": [
      {"measurement": "NR5A2 mRNA levels", "setting": "NR5A2 mRNA", "result": "up-regulated"}
    ]},
    {"molecule": "B1", "values": [
      {"measurement": "effect on bone tissue", "setting": "[1]; 10^−7 M", "result": "resorptive effect on bone tissue"},
      {"measurement": "effect on bone tissue", "setting": "[1]; 10^−11 M", "result": "induces bone build-up"}
    ]}
  ]
}
